Five compounds from publication PMC5638916, “CETSA quantitatively verifies in vivo target engagement of novel RIPK1 inhibitors in various biospecimens” (Scientific Reports, 2017) can be followed below.

The test system of assay [1] is HT-29 cells. Put plainly: HT-29 necroptosis assay. Type of assay: cell-based, human. The settings on record: TNF-α + AT-406 + zVAD-FMK, 16–20 h, read-out: HT29-Necroptosis (IC50) (converted). On the procedure:
The efficacies of RIP1 inhibitors were tested in vitro using HT-29 cells and L929 cells in a necroptosis assay. For HT-29 necroptosis assay, frozen HT-29 cells were thawed and diluted to 1.5 × 10^5 cells ml^−1 in McCoy’s 5 A Medium (16600108, Invitrogen) supplemented with 10% FBS, 100 U ml^−1 penicillin, and 100 μg ml^−1 streptomycin. A 20 μl aliquot of cell suspension was added to each well of a 384-assay plate and the cell culture plates were incubated for 16–20 h at 37 °C, 5% CO2. After overnight incubation, 2.5 μl of inhibitor dissolved in culture medium was added to each well of the cell plates, and then each well was treated with 2.5 μl of necroptosis inducer containing […], AT-406, and zVAD-FMK solution at final concentrations of 200 ng ml^−1, 10 μM, and 200 μM, respectively. Lidded plates were incubated for 16–20 h at 37 °C, 5% CO2. The next day, the supernatant of culture medium in each well was evaluated with CytoTox 96 Non-Radioactive Cytotoxicity Assay (G1780, Promega) according to the manufacturer’s instructions. The absorbance of the test plate was measured by 2103 EnVision Multilabel plate reader.
A, no necroptosis inducer; B, necroptosis inducer; X, necroptosis inducer plus test inhibitor. IC50 values were calculated with XLfit software (IDBS) using a four-parameter logistic curve.

The subject of assay [2] is L929 cells. The experiment in a line: L929 necroptosis assay. The format is cell-based. The note with it: mouse TNFα + Z-VAD-FMK, 4 h.
Description: For mouse L929 necroptosis assay, L929 cells were seeded to a 96-assay plate at 3.0 × 10^4 cells/120 μl in RPMI1640 medium (189–02025, WAKO) supplemented with 10% FBS, 100 U ml^−1 penicillin, and 100 μg ml^−1 streptomycin and the cells were cultured for 16–20 h at 37 °C, 5% CO2. After overnight incubation, the cells were treated with 15 μl of inhibitor containing media followed by the treatment with 15 μl of necroptosis inducer containing mouse TNFα and Z-VAD-FMK at final concentration of 20 ng ml^−1 and 20 μM, respectively, and incubated for 4 h. The cytotoxicity assay was conducted in the same way as the HT-29 necroptosis assay.
The subject of assay [3] is phospho (Ser-345)-MLKL. The experiment in a line: Mouse phospho (Ser-345)-MLKL ELISA assay in L929 cells. Type of assay: cell-based. The settings on record: read-out: L929-pMLKL (IC50). (In general: ELISA stands for enzyme-linked immunosorbent assay.)
Description: (§1) estimated using a four-parameter logistic curve using GraphPad Prism 6.01 software (GraphPad Software Inc., La J olla, CA, USA). All of the data are shown as mean ± SEM.
Mouse phospho-MLKL ELISA assay. Phospho- MLKL in L929 cells were detected b y gen eral sandwich E LISA . L929 cell l ysat es stimulated with necroptosis inducer wer e pr epar ed in the same manner as for the in vitro necroptosis assay. The protein content of each cell l ysates was adjusted to 2 00–300 µg m l –1 to be normalised. Then 100 µl of normalised samples were added onto 96-well ELIS A pl ates (442404, Nunc) whi ch had been coated with 100 µl of anti-mouse MLKL Ab (1 µg ml –1 in PBS) overnight at 4°C, and incubated for 1h at room temperatur e. Nex t, plates were incub ated with 100 µl of anti- phospho- M LKL Ab (1 µg m l –1 in PBS supplemented with 1% BSA and 0.05% Tween20) for 1h at room temperature. Then, plates were reacted with 100 µl of anti-rabbit IgG HRP for 1h followed b y detection with 100 µl of TM B. After stopping the reaction b y adding 100 µl of 0.5 M H2SO4, plates wer e r ead on a spectrophotometer, Viento® (DS Pharma Biomedical) at A450.
Assay [4] concerns MLKL phosphorylation (p-MLKL). Put plainly: Immunoblot of MLKL phosphorylation in isolated CD11b+Ly-6G- monocytes. The note with it: isolated CD11b+Ly-6G- monocyte cells. Type of assay: cell-based, mouse. On the procedure:
reaction. […] An excitation filter of
Inhibition rate was ex pressed as percent
(%) inhibition of internal assay controls. Percentage inhibition was calculated from the signal […]
For concentration response
(IDBS) using a four-parameter logistic curve. The value of Ki (the inhibitory constant) was […]
In vitro and ex vivo whole blood necroptosis assay. For the isolation of mouse monoc yte […]
density centrifugation over Ficoll-Paque Plus (GE Healthcare). Then, CD11b+/ Ly -6G- […]
manufacturer ’s recommendation. […]
treatment (no stimulation, TSZ stimulation with DMSO control, and TSZ stimulation with […] Nec- 1). As a result, the monocyte and neutrophil fraction was decreased, in which fractions onl y the monocyte fraction was restored by the treatment of RIPK1 inhibitor. (b) Monocyte cell number was counted as CD11b+/Ly-6G- population by FACS staining for further confirmation, since CD11b+ fraction contains Ly-6G+ neutrophil population. The left-hand graph indicates the CD11b+Ly-6G- monocyt e population which was calculated from flow c ytometr y analysis. Representative plots are indicated in the right- hand panels in which CD11b+/ Ly-6G- population are shown as blue dots. Significant reduction in monocyte […]
25 treatment. (c) C D 1 1 b + Ly -6G- monoc yte cells were isolated as des cribed in Supplementary Fi g. 4b and anal ysed b y i mmunoblotting using the indicated antibodies. […]

Assay [5] concerns CD11b+/Ly-6G- monocytes in mouse whole blood. Put plainly: In vitro whole blood necroptosis assay (monocyte cell death). Type of assay: cell-based. The note with it: for restoration of monocyte number/fraction after TSZ stimulation: FACS.
Description: For in vitro whole blood assa y, 40 µl of peripheral blood were added to each well of the 96-well plate containing 12 µl of the appropriate concentration of inhibitors and 56 µl of RPMI1640 medium supplemented with 100 U ml –1 penicillin and 100 µ g ml–1 streptom ycin.
After 30 min inhibitor incubation, 12 µ l of mixture of necroptosis inducer including mouse TNF-α, AT -406, and zVAD-FMK was added to each well (final concentrations of 10 ng ml–1, 1 µM, and 20 µM, respectively), and then the cells were incubated for 16–20 h at 37°C with 5% CO2. After overnight incubation, cultured blood cells were mixed with Mouse BD Fc Block™ (553142, BD Biosciences) to block Fc receptor followed by the reaction with appropriate antibodies for 30 min on ice. Then, red blood cells were eliminated b y adding 1x lysing buffer (555899, BD Biosciences) and the cells were washed once with PBS supplemented with 1% FBS. Cells were anal ysed on an SORP LSRII Fortessa or a SORP FA C S C anto II flow c ytometer (BD Biosciences).
For ex vivo experiments, 40 µl of peripheral blood was mixed with 68 µl of RPMI1640 and resulting 108 µ l of diluted blood were added to each well of a 96- assa y pl ate with 12 µ l of mixture of necroptosis inducer mentioned above, and then the cells were incubated for 16–20 h at 37°C with 5% CO 2. The next day, the cells were collected and monocyte population was anal ysed b y flow cytometry following the procedure described above. Percentage inhibition was calculated from the signal intensity of FACS anal ysis b y
as §1
Assay [6] concerns the target T1, human RIPK1 (Homo sapiens, UniProt Q13546).
T1 construct: ITDRF values of half-maximal stabilization of endogenous RIPK1; endogenous in cells; host or cells: HT-29
T1 sequence (Q13546 1-671): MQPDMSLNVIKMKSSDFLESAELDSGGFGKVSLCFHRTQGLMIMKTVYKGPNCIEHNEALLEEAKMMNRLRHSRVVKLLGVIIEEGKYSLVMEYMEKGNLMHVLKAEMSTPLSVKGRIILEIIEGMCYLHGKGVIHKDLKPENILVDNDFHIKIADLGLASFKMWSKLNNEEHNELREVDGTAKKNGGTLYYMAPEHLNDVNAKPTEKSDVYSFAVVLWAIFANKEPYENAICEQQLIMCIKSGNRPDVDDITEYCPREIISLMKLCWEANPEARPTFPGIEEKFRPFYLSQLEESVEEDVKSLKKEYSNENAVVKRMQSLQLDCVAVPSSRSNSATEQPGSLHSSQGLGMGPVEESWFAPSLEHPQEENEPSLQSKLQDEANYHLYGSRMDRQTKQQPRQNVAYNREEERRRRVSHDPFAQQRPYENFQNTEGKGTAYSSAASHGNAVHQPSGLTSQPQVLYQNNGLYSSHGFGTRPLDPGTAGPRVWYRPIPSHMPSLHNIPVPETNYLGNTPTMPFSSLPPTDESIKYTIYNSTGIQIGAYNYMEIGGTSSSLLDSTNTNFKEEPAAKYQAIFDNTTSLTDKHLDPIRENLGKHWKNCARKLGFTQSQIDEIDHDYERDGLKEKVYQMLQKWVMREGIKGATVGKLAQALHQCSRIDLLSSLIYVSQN
The experiment in a line: CETSA (Tagg curves and ITDRF) for human RIPK1 with HT-29 cells. Type of assay: cell-based. The settings on record: compound 30 min, 47 °C for 8 min denature, independent runs reported, read-out: human_ITDRF-CETSA (EC50). On the procedure:
HT-29 and L929 cells were harvested and suspended with culture media containing 10% FBS to a cell density of 2 × 10^6 cells ml^−1. Mouse peripheral blood was collected from C57BL/6 J (female, 10-week-old, Charles River Japan) and PBMCs were isolated by density centrifugation over Lympholyte®-Mammal Cell Separation Media, Mammalian (CL5110, Cedarlane Laboratories) according to manual instructions. Briefly, approximately 500 μl of blood was carefully overlaid on 250 μl of the separation media so as not to disturb the layer. The samples were immediately spun at 800 g for 20 min at room temperature. After centrifugation, the buffy coat containing the PBMCs was collected with almost 350 μl of plasma to a cell density of approximately 1 × 10^6 cells ml^−1. […]
For the in-cell thermal aggregation curve experiments, the compound solution was mixed with 9-fold volume of the suspension of cells at approximately 2 × 10^6 cells ml^−1 and the cells were incubated for 30 min at 37 °C, 5% CO2. […] Both whole and supernatant samples were analysed by sodium dodecyl sulfate polyacrylamide gel electrophoresis (SDS-PAGE) followed by Western blotting.
For the ITDRF in cell experiments, compounds were serially diluted to generate dose response curves. […] The heat-treated samples were treated as for the sample preparation and analysed with Western blotting following the procedure described above. […]

pEC50, pIC50: −log10 of the molar value. Like-named read-outs stand apart in the source and are kept apart here.

As a reminder, the IC50 is the concentration that inhibits the measured activity by half. Regarding `Nc1ncnc2occ(-c3ccc(NC(=O)Nc4cc(C(F)(F)F)ccc4F)cc3)c12` [GSK-compound 27, reference compound], the IC50 in assay [1] (Homo sapiens) is 300 nM.
One may read the pIC50 as −log10 of the IC50, conventionally taken in molar units. Turning to `CN1C(=O)[C@@H](N2CCc3cn(Cc4ccccc4F)nc3C2=O)COc2cc(C#N)ccc21` [Compound 25], the pIC50 in assay [2] was 6.85; in assay [3] it was 7.18; in assay [5] (TNF-α + AT-406 + zVAD-FMK, 16–20 h, monocyte population by FACS), 5.92. Besides, the IC50 in assay [1] (Homo sapiens) is 8.2 nM. The “inhibition of TSZ-induced MLKL phosphorylation (p-MLKL)” value in assay [4] is “completely inhibited”. The “restoration of monocyte number/fraction after TSZ stimulation” value in assay [5] is “rescued”.
As usually defined, the pEC50 is the EC50 on a negative log10 scale, so that one unit is a factor of ten. In the case of `CN1C(=O)C(Cc2c[nH]c3ccccc23)NC1=S` (centres unmarked) [Nec-1, Necrostatin-1, reference compound], the 50% inhibitory concentration (IC50) in assay [1] (Homo sapiens) is 610 nM. Also, the pEC50 in assay [6] was 5.96. In assay [5], the “restoration of monocyte number/fraction after TSZ stimulation” value is on record as “restored”.
`CN1C(=O)[C@@H](N2CCc3c(nn(Cc4ccccc4)c3Cl)C2=O)COc2ccccc21` [Compound 18, (3S)-3-(2-benzyl-3-chloro-7-oxo-2,4,5,7-tetrahydro-6H-pyrazolo[3,4-c]pyridin-6-yl)-5-methyl-2,3-dihydro-1,5-benzoxazepin-4(5H)-one]: in assay [1], the IC50 is 1.5 nM.
For the compound `CNC(=O)c1ccc2c(c1)OC[C@H](N1CCc3c(nn(Cc4ccccc4)c3Cl)C1=O)C(=O)N2C` [Compound 23], the pIC50 in assay [2] was 7.82; in assay [3] it was 7.80. In addition, in assay [1] (Homo sapiens), the IC50 was 1.8 nM.
